# According to paper PMC4245888 (Frontiers in Pharmacology, 2014):
# Tests used:
# [1] = test system: cholesterol and triglyceride levels; conditions: cited from earlier work
# [2] = cited from earlier work
# [3] = test system: major drug metabolizing enzymes (CYP450); design: method as in van Heek and Davis, 2002; conditions: ref van Heek and Davis, 2002; cited from earlier work
# [4] = Pharmacokinetics of total EZE in plasma, single-dose three-period crossover study, EZE alone vs ATO–EZE combination; format: in vivo, human; conditions: EZE 10 mg coadministered with ATO 80 mg; bioequivalence-based hypothesis
# Description: Thirty six healthy Mexicans volunteers of both gender who were between the ages of 18 and 45 (mean ± SEM: 24.71 ± 0.03 years), had heights between 140.0 and 190.0 cm (163.0 ± 0.005 cm), and weighed between 43.50 and 79.50 kg (62.15 ± 1.9 kg) were enrolled in the study. The study protocol was approved by an independent ethics committee as well as by the regulatory authority in Mexico (COFEPRIS), and it was conducted following the ethical principles described in the Declaration of Helsinki. […]
# For the determination of both molecules were developed an analytical method, where only once plasma processing is used to obtain both molecules, but the quantification of the analytes was performed on two separate injections ATO in positive electrospray ionization ESI (+) mode and EZE in negative electrospray ionization ESI (-) mode. […]
# Chromatographic analysis was performed on UPLC-MS/MS system consisting of Acquity UPLC coupled to a tandem mass spectrometry detector XEVO-TQS (Waters, USA) and Acquity UPLC BEH C18 (1.7 μm, 2.1 × 100 mm) column (Waters, USA). […] MRM data were acquired and analyzed through MassLynx software (Waters, USA). […]
# [5] = cited from earlier work; for terminal elimination half-life: the drug and its metabolite, ref Ezzet et al., 2001
# [6] = hyperlipidemic patients, dose dependent, ref Nawrocki et al., 1995, Heinonen et al., 1996
# [7] = dose of 10 mg, ref Kosoglou et al. (2002)
# [8] = oral administration, ref van Heek et al., 2000, Patrick et al., 2002, Malloy and Kane, 2007, Mahley and Bersot, 2008
SMILES,"reduction of colesterol and triglycerides, significantly larger than equivalent doses of other statin drugs ([1]; P ≤ 0.01, ref Jones et al., 1998)","lowering of cholesterol levels [1, 6]","lowering of triglyceride levels [1, 6]",intra-subject variability ([2]; ref European Medicines Agency [EMEA] (2010)) [%],"share of circulating inhibitory activity for HMG-CoA reductase attributed to active metabolites (ortho- and parahydroxy ATO) ([2]; ref Pfizer Inc. Lipitor®, 2009)",effect on the activity of major drug metabolizing enzymes (CYP450) [3],pharmacokinetic drug–drug interaction (on EZE) [4],"Cmax of EZE [5, 7] [ng/mL]","area under the curve to the end point of EZE [5, 7] [ng·h/mL]",fraction biotransformed into glucuronide active metabolite ([5]; ref Kosoglou et al. (2002)) [%],terminal elimination half-life [5] [h],"time of first peak blood level (dual peak, enterohepatic recirculation) [5, 8] [h]","time of second peak blood level (dual peak, enterohepatic recirculation) [5, 8] [h]"
"CC(C)c1c(C(=O)Nc2ccccc2)c(-c2ccccc2)c(-c2ccc(F)cc2)n1CC[C@@H](O)C[C@@H](O)CC(=O)O [ATO, Atorvastatin]",38–51%,25–61%,9–61%,> 30,Approximately 70%,,,,,,,,
"O=C1[C@H](CC[C@H](O)c2ccc(F)cc2)[C@@H](c2ccc(O)cc2)N1c1ccc(F)cc1 [EZE, Ezetimibe]",,,,,,no effect,no relevant pharmacokinetic drug–drug interaction,64.2 to 73.6,440 to 722,> 80,20 to 30,,
O=C(O)[C@H]1O[C@@H](Oc2ccc([C@@H]3[C@@H](CC[C@H](O)c4ccc(F)cc4)C(=O)N3c3ccc(F)cc3)cc2)[C@H](O)[C@@H](O)[C@@H]1O [EZE-G],,,,,,,,,,,20 to 30,4 to 6,10 to 12
